Experimental data reported in patent US20120130117A1, “AROMATIC SULFONIUM SALT COMPOUND” (ADEKA CORPORATION, priority 2009, published 2012).

test: Solubility in polyvinylphenol/tetramethylammonium hydroxide (TMAH) aqueous solution; type: physicochemical; conditions: mass ratio of compound to polyvinylphenol in saturated solution; polyvinylphenol in 3% TMAH aqueous solution; visual check, left to stand one day
Experimental: In a screw-top tube were put 0.36 g of polyvinylphenol (S-2P from Maruzen Petrochemical Co., Ltd.; Mw: 5800) and 10.00 g of a 3% TMAH aqueous solution and heated to dissolve. A 2.00 g portion of the resulting solution was put in another screw-top tube, and a small amount of each of the trifluoromethanesulfonate of each of compound Nos. 1 and 5 and comparative compound No. 1 (intermediate No. 4 obtained in step 1 of Example 1-4) was added thereto and heated. A visual check was made to see whether the compound dissolved. This operation was repeated until saturation. The saturated solution was allowed to stand one day to make sure that no solid precipitated. The mass ratio of each compound to the polyvinylphenol of the saturated solution was taken as a parameter of solubility.

First: O=C(c1ccccc1)c1ccc(Sc2ccc([S+](c3ccc(O)cc3)c3ccc(O)cc3)cc2)c(F)c1
Second: O=C(c1ccccc1)c1ccc(Sc2ccc([S+](c3ccc(F)cc3)c3ccc(F)cc3)cc2)c(F)c1 [Comp. Compound No. 1, reference compound]
The “Solubility (%)” value of the first is higher: 70% for the first, < 1% for the second.

In the case of `O=C(c1ccc(O)cc1)c1ccc(Sc2ccc([S+](c3ccc(F)cc3)c3ccc(F)cc3)cc2)c(F)c1`, the “Solubility (%)” value is reported as 28%.
